Columns and labels:
[1] = test system: human-derived prostate cancer (DU-145); test: Nude mouse subcutaneous transplant model of human-derived prostate cancer (DU-145); type: in vivo, nude mice
Method: It was attempted to evaluate the anticancer efficacy of the compound CG165 of the present disclosure by oral administration using nude mouse subcutaneous transplant models of human-derived prostate cancer (DU-145).
Specifically. Athymic-NCr NCr-nu specific pathogen-free (SPF) 5-week-old nude mice supplied by KOATECH (Pyeongtaek-si, Gyeonggi-do) were used as animals. The cancer cell concentration was adjusted to 3×10^7 cells/mL, and 0.3 mL of cell culture per mouse was injected subcutaneously into the axillary area between the right shoulder and chest wall. Subsequently, CG165 was prepared at the corresponding concentrations by adding DMAC 10%+Tween80 10%+20% HPBCD 80% step by step, and was administered orally at 0.2 mL per 20 g of mouse, which was repeated a total of 23 times for 30 days. At 30 days after starting drug administration, the DU-145 tumor was excised and its weight was measured.
Next, it was attempted to evaluate the anticancer efficacy of the compound CG126 of the present disclosure by intraperitoneal administration using nude mouse subcutaneous transplant models of human-derived prostate cancer (DU-145) in the same manner as above.

STAT3 activity (p-STAT3) [2] = target: T1, STAT3 activity (p-STAT3) (Homo sapiens, UniProt P40763); test: STAT3 phosphorylation inhibitory effect in cancer cell line by Western blot (Table 2); type: cell-based; parameters: endogenous in cells; host or cells: unnamed 'rectal cancer cell' line; details: rectal cancer cell line, read-out: Concentration at which STAT3 activity (p-STAT3) is inhibited by 50% (μM; IC50)
T1 sequence (P40763 whole entry): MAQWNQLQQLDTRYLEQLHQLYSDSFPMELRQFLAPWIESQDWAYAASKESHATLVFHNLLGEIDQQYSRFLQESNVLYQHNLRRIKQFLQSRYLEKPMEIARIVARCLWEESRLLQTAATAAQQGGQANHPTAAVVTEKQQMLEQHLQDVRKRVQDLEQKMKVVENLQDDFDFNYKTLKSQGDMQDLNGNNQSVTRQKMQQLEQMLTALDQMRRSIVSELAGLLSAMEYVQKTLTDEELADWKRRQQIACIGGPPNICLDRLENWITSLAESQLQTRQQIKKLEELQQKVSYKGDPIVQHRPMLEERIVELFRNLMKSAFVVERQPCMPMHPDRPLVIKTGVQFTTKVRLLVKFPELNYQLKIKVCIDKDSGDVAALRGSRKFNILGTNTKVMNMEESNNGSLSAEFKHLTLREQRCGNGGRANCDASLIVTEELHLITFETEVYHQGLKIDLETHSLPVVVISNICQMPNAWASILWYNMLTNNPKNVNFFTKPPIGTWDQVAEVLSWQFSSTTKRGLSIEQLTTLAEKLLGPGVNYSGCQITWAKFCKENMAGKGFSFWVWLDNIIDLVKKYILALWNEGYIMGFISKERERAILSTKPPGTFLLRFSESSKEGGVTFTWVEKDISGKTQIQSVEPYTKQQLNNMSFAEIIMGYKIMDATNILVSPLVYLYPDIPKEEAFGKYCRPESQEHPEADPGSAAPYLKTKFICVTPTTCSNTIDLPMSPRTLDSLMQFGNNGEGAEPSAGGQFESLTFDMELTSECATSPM
Method: (§1) Prostate cancer cell line DU-145, breast cancer cell MDA-MB 468, lung cancer cell HCC827, natural killer cells (NKL), or bone marrow-derived macrophages (BMDM) (4×10^5 cells), which are immune cells, were plated in a 6-well plate. After 24 hours, the cells were each treated with 0.1% DMSO, HCA, EA, and the compounds prepared in Synthesis Examples 1 to 8 according to concentration and time, washed with PBS, and recovered using RIPA buffer. […] of protein quantified using the Bio-Rad protein assay kit (Bio-Rad, Hercules, California, USA) was subjected to 8% SDS-PAGE electrophoresis and transferred to a PVDF membrane (EMD Millipore, Billerica, MA, USA). After blocking the membrane with TBST containing 5% skim milk, the experiment was performed using primary and secondary antibodies. The primary antibodies used were p-STAT3 (Y705) (Cell Signaling), STAT3 (Cell Signaling), Cyclin D1 (Santa Cruz), Cyclin A (Santa Cruz), Mcl-1 (Santa Cruz), Survivin (Cell Signaling), Bcl-XL (Santa Cruz), and PARP (Cell Signaling) GAPDH (Santa Cruz), and the secondary antibodies used were HRP-conjugated goat anti-rabbit and anti-mouse IgG (Jackson ImmunoResearch Laboratories, West Grove, PA, USA). The antibodies used were each washed three times with TBST, and bands were detected using Luminata Forte Western HRP substrate (EMD Millipore) by LAS 4000 mini (GE Healthcare Life Sciences). Subsequently, correction using GAPDH was performed using the MultiGauge program (Fuji Photo Film, Tokyo, Japan).
The STAT3 phosphorylation inhibitory effect of the cinnamamide derivatives of Chemical Formula 1 prepared in Synthesis Examples 1 to 8 in cancer cell lines was confirmed by Western blot.
Specifically, the STAT3 phosphorylation inhibitory effect in rectal cancer cell was confirmed line as an example of representative carcinoma.

[3] = target: T2, STAT3 phosphorylation (p-STAT3) (Homo sapiens, UniProt P40763); test: STAT3 phosphorylation inhibition in natural killer cells (NKL) by Western blot; type: cell-based; details: 2, 5, 10 μM
T2 construct: endogenous in cells; host or cells: NKL natural killer cells
T2 sequence (P40763 whole entry): as above
Method: as §1, with “The primary antibodies used were p-STAT3 (Y705) (Cell Signaling), STAT3 (Cell Signaling), Cyclin D1 (Santa Cruz), Cyclin A (Santa Cruz), Mcl-1 (Santa Cruz), Survivin (Cell Signaling), Bcl-XL (Santa Cruz), and PARP (Cell Signaling) GAPDH (Santa Cruz), and the secondary antibodies used were HRP-conjugated goat anti-rabbit and anti-mouse IgG (Jackson ImmunoResearch Laboratories, West Grove, PA, USA).” left out, “Subsequently, correction using GAPDH was performed using the MultiGauge program (Fuji Photo Film, Tokyo, Japan).” left out
Specifically, NKL (4×10^5 cells) were plated in 6-well plate and each treated with 2 μM, 5 μM, and 10 μM of CG155 or CG165, and then the degree of STAT3 phosphorylation was measured by Western blot using p-STAT3 antibody.

[4] = target: T3, STAT3 phosphorylation (p-STAT3) (Mus musculus, UniProt P42227); test: STAT3 phosphorylation inhibition in IL-10-treated bone marrow-derived macrophages (BMDM) by Western blot; type: cell-based, C57BL/6 mice; details: for inhibition of phosphorylation of STAT3, dependence on concentration: 1 hour pre-treatment, then IL-10 for 15 minutes
T3 construct: the bone marrow-derived macrophages isolated from mouse bone marrow; endogenous in cells; host or cells: primary bone marrow-derived macrophages from C57BL/6 mice
T3 sequence (P42227 whole entry): as the sequence (P40763 whole entry) above, with E760D counted along it
Method: as §1, with “Japan). […]” for “Japan).”
Subsequently, in order to confirm the function of CG155 and CG165 in inhibiting STAT3 activation in the bone marrow-derived macrophages isolated from mouse bone marrow, the bone marrow-derived macrophages were each pre-treated with DMSO, CG155 (5 μM, 10 μM), and CG165 (2 μM, 5 μM) for 1 hour. After removing the culture medium, the bone marrow-derived macrophages were treated with interleukin-10 (IL-10), a type of cytokine that can activate STAT3, for 15 minutes, and the function of CG155 and CG165 on inhibiting STAT3 activation was measured by Western blot using p-STAT3 antibody.

[5] = test system: prostate cancer cell line DU-145; test: Cell proliferation assay (WST-1) in prostate cancer cell line DU-145; type: cell-based, human; details: 24 or 48 hours
Method: In Example 1, it was confirmed that STAT3 activity (p-STAT3) was inhibited in cancer cells when treated with the cinnamamide derivatives of Chemical Formula 1 prepared in Synthesis Examples 1 to 8. In order to confirm the effect of inhibiting STAT3 activity on inhibition of cancer cell growth, cell proliferation assay was performed using the prostate cancer cell line, a representative carcinoma.
Specifically, the prostate cancer cell line DU-145 (0.8×10^4 cells) was plated in a 96-well plate. After 24 hours, DMSO (control) and CG-165 were treated for 24 or 48 hours according to concentration, and then treated with 10 ul of WST-1 reagent (Dojindo Laboratories, Kumamoto, Japan). After treatment for about 1 hour, cell viability was calculated using the absorbance measured at 450 nm with a microplate reader (Multiskan GO system, Thermo Fisher Scientific, Rockford, IL, USA).

[6] = test system: human foreskin fibroblasts HFF; test: Cell viability (WST-1) in normal cells HFF; type: cell-based; details: 10 μM, 48 hours
[7] = test system: MCF10A, human breast epithelial cells; test: Cell viability (WST-1) in normal cells MCF10A; type: cell-based; details: 10 μM, 48 hours
[8] = test system: breast cancer cell line MDA-MB-468; test: Cell proliferation assay (WST-1) in breast cancer cell line MDA-MB-468; type: cell-based; details: 24 or 48 hours
Method: In Example 1, it was confirmed that STAT3 activity (p-STAT3) was inhibited by more than 50% in cancer cells when treated with the compound CG165 of the present disclosure. In order to confirm the effect of inhibiting STAT3 activity on inhibition of cancer cell growth, cell proliferation assay was performed using the breast cell line, a representative carcinoma.
Specifically, the breast cancer cell line MDA-MB-468 was treated with CG-165 according to concentrations for 24 or 48 hours, and then the degree of cell viability was measured using the WST-1 assay (Dojindo Laboratories, Kumamoto, Japan).

[9] = test system: STAT3 target proteins (cyclin A, Mcl-1, survivin), caspase 3, PARP; test: Expression of STAT3 target proteins and apoptotic effect in cancer cell lines by Western blot; type: cell-based
Method: as §1
In Example 1, it was confirmed that STAT3 activity (p-STAT3) was inhibited in cancer cells when treated with the compound CG165 of the present disclosure. The effect of inhibiting the expression of STAT3 target proteins and the apoptotic effect due to the inhibition of STAT3 activity were confirmed using Western blot.

[10] = Single oral dose toxicity in mice; type: in vivo; details: male mice; 100 mg/kg, 200 mg/kg, and 300 mg/kg
Method: In order to obtain information on the acute toxicity of the compound CG165 of the present disclosure whose anticancer effect has been verified in animal models, the test substance was administered orally once at 100 mg/kg, 200 mg/kg, and 300 mg/kg to male mice to determine mortality, general symptoms, weight change, and post-mortem over 7 days.
Specifically, 20 Athymic-NCr NCr-nu specific pathogen-free (SPF) 5-week-old nude mice supplied by KOATECH (Pyeongtaek-si, Gyeonggi-do) were used as animals. Subsequently, CG165 was prepared as administration solution at different concentrations by adding DMAC 10%+Tween80 10%+20% HPBCD 80% step by step, and was administered orally.
General symptoms and dead animals were observed every hour from 1 to 6 hours after the final administration on the day of administration, and once daily from the day after administration until the 7th day for observation of changes in general symptoms, toxic symptoms, and the presence of dead animals.
In order to observe changes in body weight, the body weight of all animals used in the test was measured before administration and on days 0, 1, 2, 4, and 7 after administration.
On the 7th day after administration, all animals were anesthetized using CO2 gas, laparotomized, and killed by exsanguination by cutting the abdominal artery and vein, and all internal organs were visually observed.

STAT3 activity (p-STAT3) [11] = target: T1, STAT3 activity (p-STAT3); test: STAT3 phosphorylation inhibition in breast cancer cell line MDA-MB-468 by Western blot; type: cell-based; parameters: endogenous in cells
Method: as §1, with “Subsequently, correction using GAPDH was performed using the MultiGauge program (Fuji Photo Film, Tokyo, Japan).” left out

STAT3 activity (p-STAT3) [12] = target: T1, STAT3 activity (p-STAT3); test: STAT3 phosphorylation inhibition in lung cancer cell line HCC827 by Western blot; type: cell-based; parameters: endogenous in cells
Method: as §1, with “Subsequently, correction using GAPDH was performed using the MultiGauge program (Fuji Photo Film, Tokyo, Japan).” left out

STAT3 activity (p-STAT3) [13] = target: T1, STAT3 activity (p-STAT3); test: STAT3 phosphorylation inhibition in prostate cancer cell line DU-145 by Western blot; type: cell-based; parameters: endogenous in cells; host or cells: DU-145, MDA-MB-468, HCC827
Method: as §1
Next, the STAT3 phosphorylation inhibitory effect of the compound CG165 of the present disclosure in cancer cell lines was confirmed by Western blot.

C=C(C)C(=O)NC(=O)/C=C/c1ccccc1OC [CG126]
decrease in tumor weight compared to the vehicle ([1]; 30 mg/kg intraperitoneal, day 25, p<0.06): 54.2% | IC50 (STAT3 activity (p-STAT3) [2]): 3.7 µM

C=C(C)C(=O)NC(=O)/C=C/c1ccccc1C [CG127]
IC50 (STAT3 activity (p-STAT3) [2]): 8.1 µM

C=C(C)C(=O)NC(=O)/C=C/c1ccccc1O [CG133]
IC50 (STAT3 activity (p-STAT3) [2]): 6.2 µM

C=C(C)C(=O)NC(=O)/C=C/c1ccccc1OCc1ccncc1 [CG155]
inhibition of phosphorylation of STAT3, dependence on concentration [3]: concentration-dependent manner | inhibition of phosphorylation of STAT3, dependence on concentration [4]: concentration-dependent manner | IC50 (STAT3 activity (p-STAT3) [2]): 5 µM

C#CCOc1ccccc1/C=C/C(=O)NC(=O)C(=C)C [CG164]
IC50 (STAT3 activity (p-STAT3) [2]): 3.5 µM

C#CCOc1ccccc1/C=C/C(=O)N(C)C(=O)C(=C)C [CG165]
inhibition of growth of cancer cells (cell viability, WST-1) [5]: inhibited the growth of cancer cells in a concentration-dependent manner | effect on the growth of normal cells (cell viability, WST-1) [6]: no significant effect | effect on the growth of normal cells (cell viability, WST-1) [7]: no significant effect | inhibition of growth of breast cancer cells (cell viability, WST-1) [8]: inhibited the growth of breast cancer cells in a concentration-dependent manner | caspase 3 activation [9]: activated | decomposition of PARP protein (cell death biomarker) [9]: promoted | expression of cyclin A, Mcl-1, and survivin (target proteins of STAT3) [9]: significantly inhibited | inhibition of phosphorylation of STAT3, dependence on concentration [3]: concentration-dependent manner | inhibition at 5 µM ([4]; 5 μM, IL-10 stimulated, read-out: inhibition of STAT3 activation): > 90% | inhibition of phosphorylation of STAT3, dependence on concentration [4]: concentration-dependent manner | change in body weight compared to the vehicle ([1]; 30 mg/kg oral): no decrease in body weight was observed | decrease in tumor weight compared to the vehicle ([1]; 30 mg/kg oral, day 30, p<0.05): 43.3% | change in body weight compared to the vehicle ([1]; 60 mg/kg oral): no decrease in body weight was observed | decrease in tumor weight compared to the vehicle ([1]; 60 mg/kg oral, day 30, p<0.05): 64.3% | tumor growth inhibition (tumor size) compared to the vehicle ([1]; 60 mg/kg oral, day 30, p<0.05): 63.3% | tumor growth inhibition (tumor size) compared to the vehicle ([1]; P.O, 30 mg/kg, day 30, p<0.05): 45.6% | toxicological changes upon single oral administration [10]: did not cause toxicological changes | inhibition of STAT3 activity (p-STAT3), dependence on concentration (STAT3 activity (p-STAT3) [11]): concentration-dependent manner | inhibition at 5 µM (STAT3 activity (p-STAT3) [11]; 5 μM): > 50% | inhibition of STAT3 activity (p-STAT3), dependence on concentration (STAT3 activity (p-STAT3) [12]): concentration-dependent manner | inhibition at 5 µM (STAT3 activity (p-STAT3) [12]; 5 μM): > 50% | inhibition of STAT3 activity (p-STAT3), dependence on concentration (STAT3 activity (p-STAT3) [13]): concentration-dependent manner | inhibition of STAT3 activity (p-STAT3), dependence on time (STAT3 activity (p-STAT3) [13]): time-dependent manner | inhibition at 2 µM (STAT3 activity (p-STAT3) [13]; 2 μM): > 50% | IC50 (STAT3 activity (p-STAT3) [2]): 1.8 µM

C=C(C)C(=O)NC(=O)/C=C/c1ccccc1Cl [CG168]
IC50 (STAT3 activity (p-STAT3) [2]): 2 µM

C=C(C)C(=O)NC(=O)/C=C/c1ccccc1OCc1ccccc1 [CG187]
IC50 (STAT3 activity (p-STAT3) [2]): 3.5 µM

From US20250082620A1, “NOVEL CINNAMAMIDE DERIVATIVES AND USE THEREOF” (KOREA RESEARCH INSTITUTE OF BIOSCIENCE AND BIOTECHNOLOGY, priority 2022, published 2025)
